# Laboratory results taken from paper PMC5055303, “Identification and Tumour-Binding Properties of a Peptide with High Affinity to the Disialoganglioside GD2” (PLoS ONE, 2016).
# Experiments:
# [1] = In vitro competition of WHWRLPS-phage binding to GD2 by soluble peptide; design: species or system human; settings: Fig 2B
# Procedure: (§1) Wells were coated with GD3, GD2, GD1b, GT1b or BSA (10 μg/ well each). For competition experiments, coated wells were pre-incubated with serial dilutions ranging from 10 μg to 100 pg of an 11-mer GD2-specific-peptide in DPBS for one hour at room temperature on a shaker and the supernatant was removed. In total, 1 × 10^11 pfu of the amplified phages were incubated with DPBS/Tween20 (0.3%) for one hour at room temperature on a shaker. After washing with 10 volumes of DPBS/Tween20 (0.3%), bound phages were eluted by adding E. coli ER2738 and phage titer determination was performed as described above. Additionally, an in vivo competition assay was performed in tumour-bearing mice. Therefore, 200 μg of the GD2-specific peptide and 1×10^11 pfu of the phage encoding the same peptide were co-injected intravenously in three IMR32 tumour bearing mice per experiment. Tumours were subsequently harvested and the phage titers were determined as described above.
# [2] = system: IMR32 neuroblastoma cells; assay: Cell proliferation / viability assay (MTT); assay type: cell-based, human; settings: 1 μg or 10 μg/ml peptide, maximum reduction after 96 h and 10 μg/ml vs. unrelated control peptide, quintuplicate, Fig 2A
# Procedure: Proliferation of the human neuroblastoma cell line IMR32 upon peptide addition was evaluated using MTT assays as described. Peptides were used at a concentration of 1 μg and 10 μg per well in a total volume of 200 μl per well. For each time point and each peptide concentration, experiments and controls were performed in quintuplicate.
# IMR32-induced xenografts [3] = assay: In vivo competition of phage tumour homing by co-injected peptide; design: species or system NMRI nude mice; settings: i.v. coinjection of 200 μg peptide and 1×10^11 pfu WHWRLPS-phage, 10 min; compared to injection of phage only; Fig 2D
# Procedure: as §1
# [4] = Phage binding assay on immobilized GD2; design: species or system human; settings: 10 μg GD2 per well, 1 × 10^11 pfu phage, DPBS/Tween20 (0.3%), 1 h room temperature, Fig 1A-C
# Procedure: 96-well microtiter plates (Greiner, Frickenhausen, Germany) were coated with 10 μg GD2 or 10 μg GD1b per well for one hour at room temperature. Wells were then washed 3 times with DPBS/Tween20 (0.05%), blocked with BSA (1%)/DPBS/Tween20 (0.05%) for 1 hour at room temperature, washed again and subsequently filled with H2O. Plates were stored at 8°C until use. For in vitro selection, 2 x 10^11 plaque forming units (pfu) of the unselected M13 Ph.D.-7 phage display peptide library or the phage pool of the subsequent selection rounds was incubated with DPBS/Tween20 (0.1%, 0.2%, 0,3% or 0,4%) in a GD1b coated well for 1 hour at room temperature on a shaker. The phage solution was then transferred to a well containing GD2 and incubated for 1 hour at room temperature. After washing 10 times with DPBS/Tween20 (0.1%, 0.2%, 0,3% or 0,4%), bound phages were eluted by addition of E. coli ER2738 (OD600nm 0.4–0.5) for 30 minutes at 37°C. Phage amplification in 20 ml suspension containing E. coli ER2738 (hereafter referred to as phage pool) and titer determination were performed according to the manufacturer’s instructions with the modification that X-Gal was replaced by S-Gal and ferric ammonium citrate (both obtained from Sigma, Taufkirchen, Germany). For in vivo selection, 2 x 10^11 pfu of the phage pool of the 3rd selection round were injected into the tail vein of a mouse with a xenograft tumour induced by inoculation of IMR32 cells (2 x 10^7). Anaesthetised mice were perfused with DPBS 10 min after phage application. Tumours were explanted, homogenized in LB-medium and the phages were eluted with 900 μl of an E. coli ER2738 suspension at 37°C for 30 minutes in an incubator. Of this suspension, 10 μl were used for the determination of the phage titer. The residual volume was used for phage amplification in 20 ml E. coli ER2738 suspension according to the manufacturer’s instructions. Wells were coated with GD3, GD2, GD1b, GT1b or BSA (10 μg/ well each). For competition experiments, coated wells were pre-incubated with serial dilutions ranging from 10 μg to 100 pg of an 11-mer GD2-specific-peptide in DPBS for one hour at room temperature on a shaker and the supernatant was removed. In total, 1 × 10^11 pfu of the amplified phages were incubated with DPBS/Tween20 (0.3%) for one hour at room temperature on a shaker. After washing with 10 volumes of DPBS/Tween20 (0.3%), bound phages were eluted by adding E. coli ER2738 and phage titer determination was performed as described above. Additionally, an in vivo competition assay was performed in tumour-bearing mice. Therefore, 200 μg of the GD2-specific peptide and 1×10^11 pfu of the phage encoding the same peptide were co-injected intravenously in three IMR32 tumour bearing mice per experiment. Tumours were subsequently harvested and the phage titers were determined as described above.
# IMR32-induced xenografts [5] = settings: 1×10^11 pfu i.v., 10 min circulation; for phage recovery from tumour tissue: perfusion with DPBS, WHWRLPS-phage vs. control phage
# Procedure: Human IMR32 tumour cells were injected subcutaneously (s.c.) in the right and left femoral region of anesthetized NMRI nude mice (1×10^7 IMR32 cells in 50 μl DPBS and 150 μl Matrigel (BD)). For PET imaging, IMR32 cells were injected s.c. in the neck fold. Imaging and all other interventions were conducted on day 14 day after tumour cell inoculation.
# Of the GD2-specific phage or a control phage (GHGRLPS), 1×10^11 pfu were injected intravenously in three IMR32 tumour bearing mice per phage after an i.p. application of the anaesthetics xylazine (16 mg/kg) and ketamine (100 mg/kg). After 10 minutes, the mice were perfused with DPBS and brain, muscle, stomach, kidneys, heart, lung, spleen, liver and tumour were explanted and weighed. Tissues were homogenized in LB-medium using an Ultra-Turrax T25 homogenizer (IKA Labortechnik, Staufen, Germany). Phages were eluted by the addition of E.coli ER2738 bacteria and the phage titers were determined as described above.
# [6] = Phage binding assay on immobilized GD1b; design: species or system human; settings: 10 μg GD1b per well, 1 × 10^11 pfu phage, 1 h room temperature, Fig 1A, 1B
# Procedure: 96-well microtiter plates (Greiner, Frickenhausen, Germany) were coated with 10 μg GD2 or 10 μg GD1b per well for one hour at room temperature. Wells were then washed 3 times with DPBS/Tween20 (0.05%), blocked with BSA (1%)/DPBS/Tween20 (0.05%) for 1 hour at room temperature, washed again and subsequently filled with H2O. Plates were stored at 8°C until use. For in vitro selection, 2 x 10^11 plaque forming units (pfu) of the unselected M13 Ph.D.-7 phage display peptide library or the phage pool of the subsequent selection rounds was incubated with DPBS/Tween20 (0.1%, 0.2%, 0,3% or 0,4%) in a GD1b coated well for 1 hour at room temperature on a shaker. The phage solution was then transferred to a well containing GD2 and incubated for 1 hour at room temperature. After washing 10 times with DPBS/Tween20 (0.1%, 0.2%, 0,3% or 0,4%), bound phages were eluted by addition of E. coli ER2738 (OD600nm 0.4–0.5) for 30 minutes at 37°C. […]
# Wells were coated with GD3, GD2, GD1b, GT1b or BSA (10 μg/ well each). […] Tumours were subsequently harvested and the phage titers were determined as described above.
# IMR32-induced xenografts [7] = assay: Distribution of 111In- and 68Ga-labelled DOTA peptides in vivo (gamma counter); design: species or system NMRI nude mice
# Procedure: ^111In was solved in HCl and a pH 3 was adjusted. DOTA peptides (100 μg) were diluted in the same volume of sodium acetate buffer (pH 5.0). Next, a 1:1 mixture (v/v) of the ^111In /HCl solution and the peptide solution was heated to 80°C for 10 minutes before applying it to a C18 reverse-phase cartridge (Strata™-X 33 μm Polymeric Reversed Phase, Phenomenex, Aschaffenburg, Germany). After washing twice with 5 ml water, elution of the ^111In–labelled peptide was achieved using ethanol abs. and volume was adjusted to 100 μl using isotonic NaCl solution.
# ^111In—labelled DOTA peptides (200–700 kBq) or ^68Ga—labelled DOTA peptides (80–400 kBq) were injected intravenously into mice bearing IMR32-induced (2 x 10^7 cells s.c.) xenografts. Organs and blood of mice were collected between 5 min and 24 h after injection and their radioactive content was quantified using a gamma counter (Automatic Gamma Counter 1480 Wizard TM 3”). The injected dose was calculated by weighing the syringe with and without the tracer. Activity concentrations were corrected for radioactive decay. To evaluate the effects of kidney protection, a mixture containing Gelofusine (80μg/ g bodyweight)/lysine (400μg/ g weight)/arginine (400μg/ g weight) was injected i.v. 5 minutes before application of the tracer. Here, organs and blood were collected 1 h after injection. To compare ^68Ga -labelled peptides with the clinically established tracer, one group of tumour bearing mice received ^124I -MIBG (100–200 kBq) by intravenous injection.
# [8] = Phage binding assay on immobilized GD3; design: species or system human; settings: 10 μg GD3 per well; 1 × 10^11 pfu phage, 1 h room temperature; Fig 1B
# Procedure: as §1
# [9] = Phage binding assay on immobilized GT1b; design: species or system human; settings: 10 μg GT1b per well; 1 × 10^11 pfu phage, 1 h room temperature; Fig 1B
# Procedure: as §1
# [10] = one hour after tracer injection, Fig 3C
molecule,measurement,setting,value
WHWRLPS [WHWRLPS-peptide],maximum reduction of WHWRLPS-phage binding to GD2,"[1]; in the presence of 10 μg peptide, wells pre-incubated with peptide 1 h",82%
same,peptide concentration sufficient to significantly reduce phage binding to GD2,"[1]; lowest dilution of the series 10 μg to 100 pg, p < 0.05 vs. 0 μg peptide",100 pg/mL
same,effect on IMR32 cell viability,[2],reduce cell viability
same,reduction of WHWRLPS-phage recovery from tumour tissue,IMR32-induced xenografts [3],84%
"WHWRLPS [WHWRLPS-phage, M13 phage clone displaying the hepta-peptide WHWRLPS]",binding of phage to immobilized GD2 (phage output titer),[4],specifically bound
same,binding of phage to immobilized GD2 (phage output titer),[4]; listed as phage 7,high affinity
same,phage recovery from tumour tissue,IMR32-induced xenografts [5]; Fig 2C,Significantly higher amounts
same,organs with phage accumulation,IMR32-induced xenografts [5]; attributed to mononuclear phagocytic system,"liver, the spleen and, to a lesser extent, in the lung"
same,phage recovery from other organs,"IMR32-induced xenografts [5]; compared with control phage (GHGRLPS), Fig 2C",lower than that of the control
same,binding of phage to immobilized GD1b,[6]; listed as phage 7,lower affinity
"WHWRLPS-DOTA [68Ga-labelled WHWRLPS peptide, WHWRLPS-DOTA peptide labelled with 68Ga]","accumulation in tumour tissue, 124I-MIBG vs. 68Ga-labelled peptide","IMR32-induced xenografts [7]; mouse, in vivo",comparable for both tracers
same,tissue with highest accumulation,"IMR32-induced xenografts [7]; mouse, in vivo",kidney
same,radioactive load in the kidneys with kidney protection,"IMR32-induced xenografts [7]; mouse, in vivo, iv",reduced
same,radioactivity in the blood with kidney protection,"IMR32-induced xenografts [7]; mouse, in vivo, iv",higher accumulation
same,"tumour-specific uptake, 68Ga- vs. 111In-labelled peptide","IMR32-induced xenografts [7]; mouse, in vivo, iv",higher tumour-specific uptake
same,uptake across tissues in comparison to 111In-labelled peptides,"IMR32-induced xenografts [7]; mouse, in vivo, iv",higher uptake across all tissues
WHWRLGS,binding of phage to immobilized GD2 (phage output titer),[4],impaired binding
GHWRLPS,binding of phage to immobilized GD2 (phage output titer),[4],impaired binding
GHGRLGS,binding of phage to immobilized GD2 (phage output titer),[4],impaired binding
"HAIYPRH [phage 2, reference compound]",binding of phage to immobilized GD3,[8],did not bind
same,binding of phage to immobilized GT1b,[9],did not bind
same,binding of phage to immobilized GD2 (phage output titer),[4],did not bind
same,binding of phage to immobilized GD1b,[6],did not bind
GHGRLPS,binding of phage to immobilized GD2 (phage output titer),[4],impaired binding
same,phage recovery from tumour tissue,IMR32-induced xenografts [5]; Fig 2C,did not accumulate in tumour tissue
"N=C(N)NCc1cccc([131I])c1 [124I-MIBG, metaiodobenzylguanidine, reference compound]","accumulation in tumour tissue, 124I-MIBG vs. 68Ga-labelled peptide",IMR32-induced xenografts [7]; [10],comparable for both tracers
same,"activity concentration in blood, 124I-MIBG vs. 68Ga-labelled peptide",IMR32-induced xenografts [7]; [10],higher
same,tissue with highest accumulation,"IMR32-induced xenografts [7]; one hour after tracer injection, thyroid not blocked, Fig 3C",thyroid
WHGRLPS,binding of phage to immobilized GD2 (phage output titer),[4],impaired binding
